# Measurements published in patent US5318967A, “2,3,3a,4,5,9b-hexahydro-1H-benzo[e]indole derivatives” (priority 1991, dated 1994).
# Target: acetylcholine esterase (Homo sapiens, UniProt P22303)
# Assay: biochemical
# Conditions: read-out: IC 50 for acetylcholine esterase inhibition
# Description: The determination of the acetylcholine esterase inhibition was effected according to the method of Ellmann et al., Biochem. Pharmacol. 7 (1961) 88, and/or according to the method of Johnson et al., Analytical Biochemistry 64 (1975), 229.
# Sequence of acetylcholine esterase (P22303 32-614): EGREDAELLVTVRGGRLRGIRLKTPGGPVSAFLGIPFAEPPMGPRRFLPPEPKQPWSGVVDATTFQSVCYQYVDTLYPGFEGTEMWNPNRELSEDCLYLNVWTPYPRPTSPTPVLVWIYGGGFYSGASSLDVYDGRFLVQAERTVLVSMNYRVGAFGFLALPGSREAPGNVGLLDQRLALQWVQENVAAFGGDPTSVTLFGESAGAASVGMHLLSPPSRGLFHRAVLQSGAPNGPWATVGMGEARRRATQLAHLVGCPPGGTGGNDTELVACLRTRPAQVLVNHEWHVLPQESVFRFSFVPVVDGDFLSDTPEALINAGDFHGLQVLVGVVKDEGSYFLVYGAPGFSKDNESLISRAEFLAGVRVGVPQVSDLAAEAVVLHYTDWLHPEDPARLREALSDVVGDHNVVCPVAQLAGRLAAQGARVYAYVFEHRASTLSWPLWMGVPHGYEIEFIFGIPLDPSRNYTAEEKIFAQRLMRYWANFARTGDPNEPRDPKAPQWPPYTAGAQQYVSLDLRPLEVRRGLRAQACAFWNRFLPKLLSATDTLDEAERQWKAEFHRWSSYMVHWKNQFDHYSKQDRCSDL
row,Compound,IC50 [nM]
1,"CN(C)C(=O)Oc1cccc2c1CC[C@H]1[C@@H]2CCN1CCCCCN1C(=O)c2ccccc2C1=O (racemic) [rac-3-[5-(1,3-dioxo-isoindolin-2-yl)-pentyl]-cis-2,3,3a,4,5,9b-hexahydro-1H-benzo[e]indol-6-yl dimethylcarbamate]",2.7
2,"CN(C)C(=O)Oc1cccc2c1CC[C@H]1[C@@H]2CCN1CCN1CCCCC1 (racemic) [rac-3-(2-piperidin-1-yl-ethyl)-cis-2,3,3a,4,5,9b-hexahydro-1H-benzo[e]indol-6-yl dimethylcarbamate]",31
3,"CN(C)C(=O)Oc1cccc2c1CC[C@@H]1[C@H]2CCN1CCCCCCNC(=O)c1ccccc1 (relative stereo) [rac-3-(6-benzoylamino-hexyl)-2,3,3a,4,5,9b-hexahydro-1H-cis-benzo[e]indol-6-yl-dimethylcarbamate]",11
4,"CN(C)C(=O)Oc1cccc2c1CC[C@H]1[C@@H]2CCN1CCCC1CCCCC1 (racemic) [rac-3-(3-cyclohexylpropyl)-cis-2,3,3a,4,5,9b-hexahydro-1H-benzo[e]indol-6-yl dimethylcarbamate]",19
5,"CN(C)C(=O)Oc1cccc2c1CC[C@H]1[C@@H]2CCN1CCCN1CCOCC1 (racemic) [rac-3-(3-morpholin-4-yl-propyl)-cis-2,3,3a,4,5,9b-hexahydro-1H-benzo[e]indol-6-yl dimethylcarbamate]",63
6,"CN(C)C(=O)Oc1cccc2c1CC[C@H]1[C@@H]2CCN1CCCc1ccccc1 (racemic) [rac-3-(3-phenylpropyl)-cis-2,3,3a,4,5,9b-hexahydro-1H-benzo[e]indol-6-yl dimethylcarbamate]",36
7,"CN(C)C(=O)Oc1cccc2c1CC[C@@H]1[C@H]2CCN1CCCCCCNC(=O)c1ccc(S(C)(=O)=O)cc1 (relative stereo) [rac-3-[6-(4-methanesulfonyl-benzoylamino)hexyl]-2,3,3a,4,5,9b-hexahydro-1H-cis-benzo[e]indol-6-yl-dimethylcarbamate]",5.6
8,"CN(C)C(=O)Oc1cccc2c1CC[C@H]1[C@@H]2CCN1CC1CCCCC1 (racemic) [rac-3-cyclohexylmethyl-cis-2,3,3a,4,5,9b-hexahydro-1H-benzo[e]indol-6-yl dimethylcarbamate]",36
9,"CCNC(=O)Oc1cccc2c1CC[C@H]1[C@@H]2CCN1CCC1CCCCC1 (single isomer, unassigned) [(+)-cis-3-(2-cyclohexylethyl)-2,3,3a,4,5,9b-hexahydro-1H-benzo[e]indol-6-yl ethylcarbamate]",2460
10,"CN(C)C(=O)Oc1cccc2c1CC[C@H]1[C@@H]2CCN1CCCCNC(=O)c1ccccc1 (racemic) [rac-cis-3-(4-benzoylaminobutyl)-2,3,3a,4,5,9b-hexahydro-1H-benzo[e]indol-6-yl dimethylcarbamate]",16
11,"CN(C)C(=O)Oc1cccc2c1CC[C@@H]1[C@H]2CCN1CCCCCCN (relative stereo) [rac-3-(6-aminohexyl)-2,3,3a,4,5,9b-hexahydro-1H-cis-benzo[e]indol-6-yl dimethylcarbamate]",8
12,"CN(C)C(=O)Oc1cccc2c1CC[C@@H]1[C@H]2CCN1Cc1ccccc1 (relative stereo) [rac-3-benzyl-2,3,3a,4,5,9b-hexahydro-1H-cis-benzo[e]indol-6-yl dimethylcarbamate]",49
13,"CN(C)C(=O)Oc1cccc2c1CC[C@H]1[C@H]2CCN1CCC1CCCCC1 (single isomer, unassigned) [(+)-trans-3-(2-cyclohexylethyl)-2,3,3a,4,5,9b-hexahydro-1H-benzo[e]indol-6-yl dimethylcarbamate]",22
14,"CNC(=O)Oc1cccc2c1CC[C@H]1[C@@H]2CCN1CCC1CCCCC1 (single isomer, unassigned) [(+)-cis-3-(2-cyclohexylethyl)-2,3,3a,4,5,9b-hexahydro-1H-benzo[e]indol-6-yl methylcarbamate]",18
15,"CN(C)C(=O)Oc1cccc2c1CC[C@H]1[C@@H]2CCN1CCCCC1CCCCC1 (racemic) [rac-cis-3-(4-cyclohexyl-butyl)-2,3,3a,4,5,9b-hexahydro-1H-benzo[e]indol-6-yl dimethylcarbamate]",35
16,"CC(C)CCN1CC[C@@H]2c3cccc(OC(=O)N(C)C)c3CC[C@@H]21 (racemic) [rac-3-(3-methylbutyl)-cis-2,3,3a,4,5,9b-hexahydro-1H-benzo[e]indol-6-yl dimethylcarbamate]",67
17,"CN(C)C(=O)Oc1cccc2c1CC[C@H]1[C@@H]2CCN1CCc1ccccc1 (racemic) [rac-3-phenethyl-cis-2,3,3a,4,5,9b-hexahydro-1H-benzo[e]indol-6-yl dimethylcarbamate]",47
18,"CN(C)C(=O)Oc1cccc2c1CC[C@@H]1[C@H]2CCN1CCCCCN (relative stereo) [rac-3-(5-aminopentyl)-2,3,3a,4,5,9b-hexahydro-1H-cis-benzo[e]indol-6-yl dimethylcarbamate]",111
19,"CN(C)C(=O)Oc1cccc2c1CC[C@@H]1[C@H]2CCN1CCCCNC(=O)c1ccc(S(C)(=O)=O)cc1 (relative stereo) [rac-N-[4-(6-dimethylcarbamoyloxy)-cis-2,3,3a,4,5,9b-hexahydro-1H-benzo[e]indol-3-yl)-butyl]-4-methanesulfonylbenzamide]",6.7
20,"COc1ccc(C(=O)CCCCN2CC[C@@H]3c4cccc(OC(=O)N(C)C)c4CC[C@@H]32)cc1OC (racemic) [rac-3-[4-(3,4-Dimethoxy-benzoyl)-butyl]-cis-2,3,3a,4,5,9b-hexahydro-1H-benzo[e]indol-6-yl dimethylcarbamate]",1.4
21,"CN(C)C(=O)Oc1cccc2c1CC[C@H]1[C@@H]2CCN1C1CCCC1 (racemic) [rac-cis-3-cyclopentyl-2,3,3a,4,5,9b-hexahydro-1H-benzo[e]indol-6-yl dimethylcarbamate]",95
22,"CCN(C)C(=O)Oc1cccc2c1CC[C@H]1[C@@H]2CCN1CCC1CCCCC1 (single isomer, unassigned) [(+)-cis-3-(2-cyclohexylethyl)-2,3,3a,4,5,9b-hexahydro-1H-benzo[e]indol-6-yl ethylmethylcarbamate]",3.5
23,"CCCNC(=O)Oc1cccc2c1CC[C@H]1[C@@H]2CCN1CCC1CCCCC1 (single isomer, unassigned) [(+)-cis-3-(2-cyclohexylethyl)-2,3,3a,4,5,9b-hexahydro-1H-benzo[e]indol-6-yl propylcarbamate]",2.6
24,"CN(C)C(=O)Oc1cccc2c1CC[C@H]1[C@@H]2CCN1CCC1CCCC1 (racemic) [rac-3-(2-cyclopentylethyl)-cis-2,3,3a,4,5,9b-hexahydro-1H-benzo[e]indol-6-yl dimethylcarbamate]",30
25,"CN(C)C(=O)Oc1cccc2c1CC[C@H]1[C@@H]2CCN1CCCCC(=O)c1ccccc1 (racemic) [rac-3-(4-benzoyl-butyl)-cis-2,3,3a,4,5,9b-hexahydro-1H-benzo[e]indol-6-yl dimethylcarbamate]",612
26,"CN(C)C(=O)Oc1cccc2c1CC[C@H]1[C@@H]2CCN1CCCCCN1Cc2ccccc2C1=O (racemic) [rac-3-[5-(1-oxo-isoindolin-2-yl)-pentyl]-cis-2,3,3a,4,5,9b-hexahydro-1H-benzo[e]indol-6-yl dimethylcarbamate]",4.5
27,"CN(C)C(=O)Oc1cccc2c1CC[C@@H]1[C@H]2CCN1CCCCCNC(=O)c1ccccc1 (relative stereo) [rac-3-(5-benzoylaminopentyl)-2,3,3a,4,5,9b-hexahydro-1H-cis-benzo[e]indol-6-yl dimethylcarbamate]",15.2
